Results published in patent publication US12091402B2 (Avilar Therapeutics, Inc., priority 2021, dated 2024).
Where a SMILES comes first, the peptide text is derived from it. Bridges are numbered along the chain shown (N, C = ends). The star is where a group is joined. X5 = O=C(CCCCCn1cc(CCCC(=O)*)nn1)NC(COCc1cn(CCOCCOCCOCCOC[C@H]2OC[C@H](Nc3nccc(C(F)(F)F)n3)[C@@H](O)[C@H]2O)nn1)COCc1cn(CCOCCOCCOCCOC[C@H]2OC[C@H](Nc3nccc(C(F)(F)F)n3)[C@@H](O)[C@H]2O)nn1; PEG4 = NCCOCCOCCOCCOCCC(=O)O

Biological target: T1, ASGPR (Homo sapiens, UniProt P07306)
T1 sequence (P07306 1-291): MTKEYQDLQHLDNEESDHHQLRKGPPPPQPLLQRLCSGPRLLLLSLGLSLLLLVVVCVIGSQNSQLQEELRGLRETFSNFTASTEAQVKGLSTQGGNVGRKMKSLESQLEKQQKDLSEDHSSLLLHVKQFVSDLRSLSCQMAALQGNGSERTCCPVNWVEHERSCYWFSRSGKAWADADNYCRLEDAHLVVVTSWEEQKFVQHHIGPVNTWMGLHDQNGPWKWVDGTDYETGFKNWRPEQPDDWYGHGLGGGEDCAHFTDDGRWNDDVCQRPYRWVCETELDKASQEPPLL
Assay: Affinity to ASGPR by surface plasmon resonance (SPR)

Row | Compound | Kd [nM]
1 | CC(C)C[C@@H]1NC(=O)[C@@H](NC(=O)[C@@H](NC(=O)[C@H](CCC(N)=O)NC(=O)[C@H](Cc2cnc[nH]2)NC(=O)CCOCCOCCOCCOCCNC(=O)CCCc2cn(CCCCCC(=O)NC(COCc3cn(CCOCCOCCOCCOC[C@H]4OC[C@H](Nc5nccc(C(F)(F)F)n5)[C@@H](O)[C@H]4O)nn3)COCc3cn(CCOCCOCCOCCOC[C@H]4OC[C@H](Nc5nccc(C(F)(F)F)n5)[C@@H](O)[C@H]4O)nn3)nn2)C(C)C)CSSC[C@@H](C(=O)N[C@@H](Cc2ccccc2)C(=O)N[C@@H](CO)C(=O)N[C@H](C(N)=O)[C@@H](C)O)NC(=O)[C@H](C(C)C)NC(=O)[C@@H]2CCCN2C(=O)[C@H](CCCNC(=N)N)NC(=O)CNC(=O)[C@H](CCCNC(=N)N)NC(=O)[C@H](Cc2ccc(O)cc2)NC(=O)[C@H](CO)NC1=O [Compound 57] ({X5-PEG4}-HQVCLSYRGRPVCFST-NH2; disulfide 4-13) | < 100
2 | [N-]=[N+]=NCCCCCC(=O)NC(COCCC(=O)NCCOCCOCCOCCOC[C@@]12CO[C@@H](O1)[C@H](Nc1nc(Cl)ns1)[C@@H](O)[C@H]2O)COCCC(=O)NCCOCCOCCOCCOC[C@@]12CO[C@@H](O1)[C@H](Nc1nc(Cl)ns1)[C@@H](O)[C@H]2O [A14, 3,3′-((2-(6-azidohexanamido)propane-1,3-diyl)bis(oxy))bis(N-(1-((1S,2R,3R,4R,5S)-4-((3-chloro-1,2,4-thiadiazol-5-yl)amino)-2,3-dihydroxy-6,8-dioxabicyclo[3.2.1]octan-1-yl)-2,5,8,11-tetraoxatridecan-13-yl)propanamide)] | 100 to 500
3 | O=C(O)COCCOCCOCC(=O)NC(COCCC(=O)NCCOCCOCCOCCOC[C@H]1OC[C@H](Nc2cncc(C(F)(F)F)n2)[C@@H](O)[C@H]1O)COCCC(=O)NCCOCCOCCOCCOC[C@H]1OC[C@H](Nc2cncc(C(F)(F)F)n2)[C@@H](O)[C@H]1O [A26, 1-((2R,3R,4R,5S)-3,4-dihydroxy-5-((6-(trifluoromethyl)pyrazin-2-yl)amino)tetrahydro-2H-pyran-2-yl)-20-(1-((2R,3R,4R,5S)-3,4-dihydroxy-5-((6-(trifluoromethyl)pyrazin-2-yl)amino)tetrahydro-2H-pyran-2-yl)-15-oxo-2,5,8,11,18-pentaoxa-14-azanonadecan-19-yl)-15,22-dioxo-2,5,8,11,18,24,27,30-octaoxa-14,21-diazadotriacontan-32-oic acid] | < 100
4 | O=C(CCOCc1ccc(-c2cccc3ccncc23)c(OCCc2ccc(-c3cccc4ccncc34)cc2)c1)NCCOCCOCCOCCOC[C@@]12CO[C@@H](O1)[C@H](Nc1cncc(C(F)(F)F)n1)[C@@H](O)[C@H]2O [Compound 56] | < 100

The remaining lines, values ahead:

Row | Kd [nM] | Compound
5 | 1000 to 10000 | CN(c1nccc(C(F)(F)F)n1)[C@H]1CO[C@H](CO)[C@H](O)[C@@H]1O [A60, (2R,3R,4R,5S)-2-(hydroxymethyl)-5-(methyl(4-(trifluoromethyl)pyrimidin-2-yl)amino)tetrahydro-2H-pyran-3,4-diol]
6 | > 20000 | N#Cc1nc(N[C@H]2CO[C@H](CO)[C@H](O)[C@@H]2O)cc(C(F)(F)F)n1 [A79, 4-(((3S,4R,5R,6R)-4,5-dihydroxy-6-(hydroxymethyl)tetrahydro-2H-pyran-3-yl)amino)-6-(trifluoromethyl)pyrimidine-2-carbonitrile]
7 | < 100 | NC(COCCC(=O)NCCOCCOCCOCCOC[C@H]1OC[C@H](Nc2nccc(C(F)(F)F)n2)[C@@H](O)[C@H]1O)COCCC(=O)NCCOCCOCCOCCOC[C@H]1OC[C@H](Nc2nccc(C(F)(F)F)n2)[C@@H](O)[C@H]1O [A13, 3,3′-((2-aminopropane-1,3-diyl)bis(oxy))bis(N-(1-((2R,3R,4R,5S)-3,4-dihydroxy-5-((4-(trifluoromethyl)pyrimidin-2-yl)amino)tetrahydro-2H-pyran-2-yl)-2,5,8,11-tetraoxatridecan-13-yl)propanamide)]
8 | < 1000 | OC[C@H]1OC[C@H](Nc2nc(C(F)(F)F)ccc2F)[C@@H](O)[C@H]1O [A77, (2R,3R,4R,5S)-5-((3-fluoro-6-(trifluoromethyl)pyridin-2-yl)amino)-2-(hydroxymethyl)tetrahydro-2H-pyran-3,4-diol]
